Assay results as given in patent publication US20040258771A1 (priority 2001, published 2004).

Columns and labels:
tumor growth = settings: has been shown (prior knowledge); cited from earlier work
mice = settings: cited from earlier work
Ovarian cancer cells = assay: Human cancer cell assessment, ovarian; assay type: cell-based
From the text: As a quick secondary screen, the additive alone and in combination with the target drug was examined in these human cancer cell lines. The results of TK-211 are shown as a specific example.

| SMILES | effect on cisplatin efficacy (tumor growth) | known reduction of cisplatin side effects (mice) | Cell survival (Ovarian cancer cells; 1 μg/ml) [%] | Cell survival (Ovarian cancer cells; 2 μg/ml) [%] |
| --- | --- | --- | --- | --- |
| NCCCNCCSP(=O)(O)O [Amifostine] | slight impairment of cisplatin efficacy | only to slightly reduce weight loss and hypothermia | – | – |
| N.N.[Cl][Pt][Cl] [Cisplatin, cis-diamine-dichloroplatinum (II)] | – | – | 3 | 1 |
